How the values were obtained:
Assay in all cases: relative viability (nuclei count vs DMSO), 5 days (fraction); higher = more cells survive
[1] = compound: COc1cc2nc(N3CCCN(C)CC3)nc(NC3CCN(Cc4ccccc4)CC3)c2cc1OC + CC(=O)c1c(C)c2cnc(Nc3ccc(N4CCNCC4)cn3)nc2n(C2CCCC2)c1=O [Palbociclib] (partner 0.5 µM)
In short: (§1)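 Values are medians from duplicate plates. Each reflects relative viability, defined as the nuclei count of treated wells over that of vehicle wells. Lung cancer cell lines in 1536-well plates were pin-tool dosed one day after seeding with one drug alone or with a fixed anchor-drug dose plus five library-drug doses (not always all listed) in √10 steps, then fixed, stained and imaged at 4× after 5 days.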

[2] = compound: COc1cc2nc(N3CCCN(C)CC3)nc(NC3CCN(Cc4ccccc4)CC3)c2cc1OC + Cc1nc(Nc2ncc(C(=O)Nc3c(C)cccc3Cl)s2)cc(N2CCN(CCO)CC2)n1 [Dasatinib] (partner 0.075 µM)
In short: as §1

[3] = compound: COc1cc2nc(N3CCCN(C)CC3)nc(NC3CCN(Cc4ccccc4)CC3)c2cc1OC + Nc1ncn([C@H]2C[C@H](O)[C@@H](CO)O2)c(=O)n1 [Decitabine] (partner 2 µM)
In short: as §1

[4] = compound: Cc1cc([C@@H](C)Nc2ccccc2C(=O)O)c2nc(N3CCOCC3)cc(=O)n2c1 [AZD6482] + Cc1nc(NC(=O)N2CCC[C@H]2C(N)=O)sc1-c1ccnc(C(C)(C)C(F)(F)F)c1 [Alpelisib] (partner 2 µM)
In short: as §1

## UMC-11
[1]; first compound 0.2 µM
  relative viability: 0.374
[1]; first compound 0.6325 µM
  relative viability: 0.389
[1]; first compound 2 µM
  relative viability: 0.317
[1]; first compound 6.325 µM
  relative viability: 0.259
[2]; first compound 0.2 µM
  relative viability: 0.464
[2]; first compound 0.6325 µM
  relative viability: 0.435
[2]; first compound 2 µM
  relative viability: 0.468
[2]; first compound 6.325 µM
  relative viability: 0.286
[3]; first compound 0.2 µM
  relative viability: 0.598
[3]; first compound 0.6325 µM
  relative viability: 0.577
[3]; first compound 2 µM
  relative viability: 0.597
[3]; first compound 6.325 µM
  relative viability: 0.451
[4]; first compound 0.08 µM
  relative viability: 1.01
[4]; first compound 0.253 µM
  relative viability: 0.938
[4]; first compound 0.8 µM
  relative viability: 0.984
[4]; first compound 2.53 µM
  relative viability: 0.693
[4]; first compound 8 µM
  relative viability: 0.965

Reference: the supplement of paper PMC10307832
